Laboratory results reported in patent publication US10806794B2, “Protease inhibitors having enhanced features” (priority 2008, dated 2020).
Read-outs that look alike come from different tables or passages of the source.

What was measured:
PBMCs = test: Toxicity in PBMCs cultured without virus (XTT)
Protocol: Fresh human peripheral blood mononuclear cells (PBMCs) obtained from a commercial source were purified following centrifugation using a Ficoll-Hypaque density gradient. Viable cells were induced to proliferate in the presence of PHA-P and recombinant human IL-2 for 72 hours. […] Cell supernatant containing HIV-1 viral was incubated for 90 minutes at 37° C. with a reaction mixture containing EGTA, Triton X-100, Tris (pH 7.4), DTT, MgCl2, poly rA, oligo dT, and tritiated thymidine triphosphate (TTP). Incorporation of TTP into DNA was monitored by spotting the reaction mixture onto a DEAE filter mat, followed by washes with 5% phosphate buffer, distilled water, and 70% ethanol, and subsequent drying of the mat. […] TI was calculated as TC50/EC50.

[1] = system: human liver microsomal proteins; test: Microsomal protein binding by equilibrium dialysis; type: in vitro ADME; settings: human liver microsomes, 3 μM, fraction unbound
Summary of the method: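 Compound at 3 μM final in buffer with or without human liver microsomes, dialysed to equilibrium at 37 °C. Both sides quantified by LC-MS/MS to derive fraction unbound (Fu).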

CEM-SS cells [2] = system: CEM-SS cells
Protocol: To evaluate whether conjugated protease inhibitors retain the ability to protect against HIV-1 infection, CEM-SS cells infected with the RF strain of HIV-1 were treated with test compounds for six days, and then cell viability was monitored using the tetrazolium dye XTT. […] A value for Therapeutic Index (TI) was calculated as TC50/EC50.

[3] = system: Sprague-Dawley rat hepatocytes; test: Metabolic stability in Sprague-Dawley rat hepatocytes; type: in vitro ADME; settings: 0.1 uM
dog plasma proteins = test: Plasma protein binding by equilibrium dialysis, dog plasma; type: in vitro ADME; settings: fraction unbound
Protocol: (§1) In assays to estimate binding of test compounds to plasma proteins, test compound solutions (5 μM) are prepared in buffer and species-specific plasma (final DMSO concentration 0.5%). The plasma-containing solution is added to one side of the membrane of an equilibrium dialysis system, and the plasma-free is added to the other side. Dialysis was allowed to reach equilibrium by incubation for two hours at 37° C. The concentration of compound on both sides of the membrane was measured using LC-MS/MS.

CYP2C9 = CYP2C9 (Homo sapiens (Human), UniProt P11712); settings: microsomes
rat plasma proteins = test: Plasma protein binding by equilibrium dialysis, rat plasma; type: in vitro ADME; settings: fraction unbound
Protocol: as §1

[4] = molecular target: recombinant HIV-1 protease (Human immunodeficiency virus type 1 group M subtype B (isolate HXB2) (HIV-1), UniProt P04585); test: Enzyme inhibition of purified HIV-1 protease (SensoLyte 520 HIV-Protease Assay Kit); type: biochemical; settings: read-out: IC50 ± SD
Protocol: Protease inhibitors (PI) are used to treat HIV infection by preventing viral assembly and maturation through the inhibition of HIV-1 protease activity. Biochemical assays were performed to evaluate the potential of PEG-PI conjugates to inhibit HIV-1 protease activity, relative to their respective PI parent molecules. Activity assays were performed at using the SensoLyte 520 HIV-Protease Assay Kit (Anaspec Inc., San Jose, Calif.) and recombinant HIV-1 protease. Protease activity was monitored by the formation of a fluorescent reporter product generated during HIV-1 protease-mediated digestion of a quenched, fluorimetric substrate containing the p17/p24 Pr^gag cleavage site.

mouse plasma proteins = test: Plasma protein binding by equilibrium dialysis, mouse plasma; type: in vitro ADME; settings: fraction unbound
Protocol: as §1

CEM-SS cells [5] = test: CEM-SS macromolecule synthesis (tritiated precursor incorporation); type: cell-based
Protocol: Cellular macromolecule synthesis was evaluated using tritiated precursor incorporation assays. CEM-SS cells (2.5×10^3 cells/well) were cultured in the presence or absence of test compound for 7 days at 37 C, 5% CO2 in a 96-well microtiter plate. On day 6 of the incubation, 1 uCi of [methyl-3H]-thymidine for DNA synthesis, [5-3H]-uridine for RNA synthesis, or [3,4,5-3H]-leucine for protein synthesis was added to compound-treated cells, and the plate was further incubated for 16 hours. The cells were transferred to a glass fiber filtermat using an Inotech cell harvester. The filtermats were washed with distilled water then sealed in a bag with scintillation fluid. Incorporated radioactivity was measured using a Wallac scintillation counter.

[6] = Metabolic stability in beagle dog hepatocytes; type: in vitro ADME
[7] = Metabolic stability in rat liver microsomes; type: in vitro ADME
From the text: Metabolic stability of test compounds was studied in rat liver microsomes.

in vitro = settings: human
Protocol: Absorption properties of various compounds were measured using bi-directional permeability assays in Caco-2 cells. […] The efflux ratio is calculated as the ratio of the Papp(B→A)/Papp(A→B).

[8] = Plasma protein binding by equilibrium dialysis, monkey plasma; type: in vitro ADME; settings: read-out: Monkey Plasma Protein Binding Fu ± SD
Protocol: as §1

hERG = hERG (Homo sapiens (Human), UniProt Q12809); test: hERG current (IKr) in HEK-293 cells, whole-cell patch clamp; type: cell-based; settings: for IC50: hERG current in HEK-293 cells, whole-cell patch clamp, read-out: IC50 (Block of hERG at 0.1 Hz)
Protocol: Currents were measured using the whole-cell variant of the patch clamp method. Glass pipettes were produced with tip openings of […] for K current recordings. Pipette tip resistance was approximately 1.0 to 2.0 MΩ when filled with K internal solutions (130 mM KCl, 5 mM MgCl2, 10 mM HEPES, 5 mM EGTA, 5 mM ATP-Na2, pH7.2). An Axopatch 1-B amplifier (Axon Instruments, Foster City, Calif.) was used for whole-cell voltage clamping. Voltage clamp pulses were controlled by pClamp software (ver 9.2, Axon Instruments).
After rupture of the cell membrane, current kinetics and amplitudes were allowed to stabilize as the cell was dialyzed with internal solution and paced at 0.1 Hz (−75 mV; 500 msec, +10 mV; 500 msec, −40 mV; typically 2-4 minutes). Currents were considered stable if the currents elicited by a series of voltage pulses given at 0.1 Hz were superimposed. Peak hERG current was measured as the maximum outward deflection of the tail current elicited upon return to −40 mV.
Data are presented in Table 19 as the percent reduction of current amplitude. This was measured as current reduction after a steady-state effect had been reached in the presence of drug relative to current amplitude before drug was introduced (control). Each cell served as its own control.

Chain of CYP2C9 (P11712 whole entry): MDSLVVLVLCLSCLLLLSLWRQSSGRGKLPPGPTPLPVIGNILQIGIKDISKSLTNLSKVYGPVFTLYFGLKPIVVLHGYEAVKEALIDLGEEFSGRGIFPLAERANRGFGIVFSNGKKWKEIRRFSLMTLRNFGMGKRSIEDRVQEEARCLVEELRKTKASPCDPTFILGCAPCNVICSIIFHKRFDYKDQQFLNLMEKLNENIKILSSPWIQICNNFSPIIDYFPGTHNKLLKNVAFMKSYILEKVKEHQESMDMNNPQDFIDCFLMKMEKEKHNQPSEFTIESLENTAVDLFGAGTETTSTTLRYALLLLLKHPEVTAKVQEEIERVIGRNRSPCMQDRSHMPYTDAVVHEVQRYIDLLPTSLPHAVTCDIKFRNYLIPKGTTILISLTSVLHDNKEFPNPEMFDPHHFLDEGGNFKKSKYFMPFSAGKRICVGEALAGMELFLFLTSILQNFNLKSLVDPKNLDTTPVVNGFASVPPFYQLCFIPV
Chain of hERG (Q12809 whole entry): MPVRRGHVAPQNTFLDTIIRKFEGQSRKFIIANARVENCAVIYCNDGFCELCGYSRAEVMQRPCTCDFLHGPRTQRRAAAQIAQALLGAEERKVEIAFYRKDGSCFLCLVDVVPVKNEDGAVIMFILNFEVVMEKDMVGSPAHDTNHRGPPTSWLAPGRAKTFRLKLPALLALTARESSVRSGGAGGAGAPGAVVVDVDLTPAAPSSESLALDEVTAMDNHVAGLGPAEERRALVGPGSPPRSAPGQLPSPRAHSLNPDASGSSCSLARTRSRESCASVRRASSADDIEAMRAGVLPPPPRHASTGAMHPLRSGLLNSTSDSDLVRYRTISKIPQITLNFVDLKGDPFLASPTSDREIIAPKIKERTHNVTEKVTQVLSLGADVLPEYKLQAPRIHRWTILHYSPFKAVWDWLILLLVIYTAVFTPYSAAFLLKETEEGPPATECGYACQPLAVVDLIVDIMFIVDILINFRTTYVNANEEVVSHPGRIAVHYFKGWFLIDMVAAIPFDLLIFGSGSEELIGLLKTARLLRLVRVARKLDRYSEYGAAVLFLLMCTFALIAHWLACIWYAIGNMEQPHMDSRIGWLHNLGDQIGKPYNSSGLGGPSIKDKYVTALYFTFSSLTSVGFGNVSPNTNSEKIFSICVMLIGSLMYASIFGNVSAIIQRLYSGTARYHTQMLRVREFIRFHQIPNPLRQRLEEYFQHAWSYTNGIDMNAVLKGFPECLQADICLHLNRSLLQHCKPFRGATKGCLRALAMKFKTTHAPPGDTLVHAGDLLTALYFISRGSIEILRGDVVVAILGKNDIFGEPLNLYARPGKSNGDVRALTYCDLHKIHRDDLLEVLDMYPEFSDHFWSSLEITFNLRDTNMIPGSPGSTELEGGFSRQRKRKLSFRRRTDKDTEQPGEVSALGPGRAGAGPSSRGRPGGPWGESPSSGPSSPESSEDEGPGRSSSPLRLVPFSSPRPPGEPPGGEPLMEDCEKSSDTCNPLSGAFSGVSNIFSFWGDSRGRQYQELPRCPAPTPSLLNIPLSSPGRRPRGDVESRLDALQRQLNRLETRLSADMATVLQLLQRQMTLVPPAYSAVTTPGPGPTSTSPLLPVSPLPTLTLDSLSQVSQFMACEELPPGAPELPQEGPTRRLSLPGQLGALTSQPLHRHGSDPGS

SMILES | CEM-SS TC50 ± SD (CEM-SS cells [2]) [µM] | PBMC TC50 ± SD (PBMCs) [µM] | Dog Plasma Protein Binding Fu ± SD (dog plasma proteins) | IC50 (CYP2C9) [µM] | Rat Plasma Protein Binding Fu ± SD (rat plasma proteins) | IC50 [4] [µM] | Mouse Plasma Protein Binding Fu ± SD (mouse plasma proteins) | IC50 (hERG; 0.1 Hz) [µM] | t½ [7] [min] | Mean % inhibition ± SEM (Block of hERG at 0.1 Hz) (hERG; 10 μM, HEK-293 cells) [%] | Mean % inhibition ± SEM (Block of hERG at 0.1 Hz) (hERG; 30 μM, HEK-293 cells) [%] | Mean % inhibition ± SEM (Block of hERG at 0.1 Hz) (hERG; 100 μM, HEK-293 cells) [%] | also measured
COCCOCCOCCOCCOCCOCCOCCNc1ccc(S(=O)(=O)N(CC(C)C)CC(O)[C@H](Cc2ccccc2)NC(=O)O[C@H]2CO[C@H]3OCC[C@H]32)cc1 (stereo partly drawn) [mPEG7-N-Darunavir] | – | – | – | – | – | – | – | – | – | – | – | – | PBMC TC50 ± SD (PBMCs; seven days, absence of virus, XTT): >200 µM; Microsomal Protein Binding Fu ± SD [1]: 0.973 ± 0.0139
COCCOC(=O)NC(C(=O)NC(Cc1ccccc1)C(O)CN(Cc1ccc(-c2ccccn2)cc1)NC(=O)C(NC(=O)OC)C(C)(C)C)C(C)(C)C (stereo not drawn) [mono-mPEG1-Atazanavir] | 49.1 ± 6.4 | 135.9 | 0.208 ± 0.0317 | > 25 | 0.0793 ± 0.00541 | 0.00282 | 0.0666 ± 0.00662 | – | – | – | – | – | CLint ± SEM [3]: 82.5 ± 0.0100 μL/min/10^6 cells; t1/2 [3]: 16.8 min
COCCOCCOCCOC(=O)NC(C(=O)NC(Cc1ccccc1)C(O)CN(Cc1ccc(-c2ccccn2)cc1)NC(=O)C(NC(=O)OC)C(C)(C)C)C(C)(C)C (stereo not drawn) [mono-mPEG3-Atazanavir, {1-[N′-[2-Hydroxy-3-(2-{2-[2-(2-methoxy-ethoxy)-ethoxy]-ethoxycarbonylamino}-3,3-dimethyl-butyrylamino)-4-phenyl-butyl]-N′-(4-pyridin-2-yl-benzyl)-hydrazinocarbonyl]-2,2-dimethyl-propyl}-carbamic Acid Methyl Ester] | – | – | – | – | – | – | – | 88.3 | – | – | – | – | Thymidine incorportation (CEM-SS) TC50 (CEM-SS cells [5]; DNA synthesis): 396.2 µM; Uridine incorporation (CEM-SS) TC50 (CEM-SS cells [5]; RNA synthesis): 396.6 µM; Leucine Incorporation (CEM-SS) TC50 (CEM-SS cells [5]; protein synthesis): >400 µM; half-life at 0.1 μM [6]: 86 min; hepatocyte CLint at 0.1 μM ([6]; read-out: Clint ± SEM): 16.1 ± 0.000914 µL/min/1e6 cells; half-life [7]: 26.8 min; efflux ratio (in vitro; Caco-2): 44; Papp A→B (in vitro; Caco-2, A→B, ×10^−6): 0.53 ×10⁻⁶ cm/s; fraction unbound at 2 h, 5 μM [8]: 0.204 ± 0.196; inhibition at 10 µM (hERG; human, HEK-293 cells stably expressing hERG, 10 μM, 0.1 Hz, HEK-293 cells, read-out: Mean % inhibition ± SEM (Block of hERG at 0.1 Hz)): 5.4 ± 0.6%; inhibition at 30 µM (hERG; human, HEK-293 cells stably expressing hERG, 30 μM, 0.1 Hz, HEK-293 cells, read-out: Mean % inhibition ± SEM (Block of hERG at 0.1 Hz)): 23.7 ± 3.7%; inhibition at 100 µM (hERG; human, HEK-293 cells stably expressing hERG, 100 μM, 0.1 Hz, HEK-293 cells, read-out: Mean % inhibition ± SEM (Block of hERG at 0.1 Hz)): 53.1 ± 2.6%
COCCOCCOCCOCCOCCOC(=O)NC(C(=O)NC(Cc1ccccc1)C(O)CN(Cc1ccc(-c2ccccn2)cc1)NC(=O)C(NC(=O)OC)C(C)(C)C)C(C)(C)C (stereo not drawn) [mono-mPEG5-Atazanavir] | – | – | 0.695 ± 0.118 | 23.7 | 0.307 ± 0.0493 | 0.00291 | 0.217 ± 0.0103 | > 100 | 57.6 | 11.2 ± 1.4 | 26.3 ± 2.9 | 43.8 ± 3.9 | –
COCCOCCOCCOCCOCCOCCOC(=O)NC(C(=O)NC(Cc1ccccc1)C(O)CN(Cc1ccc(-c2ccccn2)cc1)NC(=O)C(NC(=O)OC)C(C)(C)C)C(C)(C)C (stereo not drawn) [mono-mPEG6-Atazanavir] | – | – | 0.497 ± 0.0386 | > 25 | 0.451 ± 0.0385 | 0.00131 | 0.159 ± 0.0167 | > 100 | 104 | 4.4 ± 0.4 | 12.7 ± 1.3 | 26.0 ± 1.0 | –
COCCOCCOCCOCCOCCOCCOCCOC(=O)NC(C(=O)NC(Cc1ccccc1)C(O)CN(Cc1ccc(-c2ccccn2)cc1)NC(=O)C(NC(=O)OC)C(C)(C)C)C(C)(C)C (stereo not drawn) [mono-mPEG7-Atazanavir] | 133.8 ± 24.5 | 187.2 | 0.306 ± 0.0478 | > 25 | 0.255 ± 0.0778 | 0.00129 | 0.174 ± 0.00791 | – | – | – | – | – | –
